Results from US5656660A, “Compositions and methods for treating mast-cell mediated conditions” (Arris Pharmaceutical Corporation, priority 1995, dated 1997).

Tests used:
[1] = target: tryptase; experiment: In vitro tryptase inhibition assay; type: biochemical, human; details: tosyl-Gly-Pro-Lys-p-nitroanilide 0.5 mM; 1 h preincubation at room temperature; pH 8.2
Method: The compounds to be assayed (approximately 1 mg) were dissolved in 200 μL dimethylsulfoxide (DMSO) and diluted 1:10 into buffer containing 50 millimolar (mM) Tris-HCl (pH 8.2), 100 mM sodium chloride, and 0.05% polyoxyethylenesorbitan monolaurate (Tween-20°, available from Sigma, St. Louis, Mo.). Seven additional threefold dilutions were made from the initial dilution into the same buffer supplemented with 10% DMSO. Aliquots (50 microliters, μL) from each of the eight dilutions in the series were transferred to individual wells in a 96-well U-bottom microtiter plate. […] The tryptase solution was prepared by placing 60 μg/mL of tryptase into solution with 10 mM MES (2-[N-Morpholino]ethane sulfonic acid) containing 2 mM CaCl2, 20% glycerol and 50 μg/mL heparin. The enzyme reaction was initiated with the addition of the synthetic tripeptide substrate, tosyl-Gly-Pro-Lys-p-nitroanilide (available from Sigma, 25 μL; 0.5 mM final concentration). […] Initial velocity measurements calculated from the progress curves by a kinetic analysis program (BatchKi; Petr Kuzmic, University of Wisconsin, Madison, Wis.) were used to determine apparent inhibition constants for each inhibitor.

[2] = test system: antigen-challenged sheep; experiment: Allergic sheep model of asthma, aerosol: Specific Lung Resistance (SRL) after antigen challenge; type: in vivo; details: aerosol 0.5 h before, 4 h after and 24 h after challenge, n=6; for early response to antigen challenge (SRL): peak immediately post-challenge; for late response to antigen challenge (SRL): peak within 6-8 h
Method: The initial asthmatic response can be evaluated in guinea pigs, and dogs, and particularly, with a basenji-greyhound cross strain which develops nonspecific airway hyperresponsiveness to numerous nonallergenic substances, such as methacholine and citric acid. […] In dual responding animals, the initial asthmatic response (IAR) is followed by a late asthmatic response (LAR) at 6-8 hours post-exposure.
The allergic sheep model (see below) was used to evaluate the potential antiasthmatic effects of the compounds of the present invention.
(§1) The allergic sheep model of asthma was employed for the in vivo evaluation of the compounds of the invention as antiasthmatics. These methods have been published previously (see Abraham et al. (1983) Am. Rev. Respir. Dis. 128:839-844; Allegra et al. (1983) J. Appl. Physiol. 55:726-730; Russi et al. (1985) J. Appl. Physiol. 59:1416-1422; Soler et al. ((1989) J. Appl. Physiol. 67:406-413. Each sheep serves as its own control. Body weights for these animals ranged from 20-50 kilograms.
(§2) In these studies, […] of Compound 2 of the invention was dissolved in buffered saline and the total solution delivered as an aerosol 0.5 hours before, 4 hours after, and 24 hours after antigen challenge (total dose=27; n=6). […] The peak early response was taken as the average of the maximum values occurring immediately post-challenge. Peak late responses were calculated by averaging the maximum response values obtained for each animal within the 6-8 hour time period. This approach is conservative and eliminates the possible reduction in the late response due simply to averaging.

[3] = test system: antigen-challenged sheep; experiment: Allergic sheep model of asthma: airway hyperresponsiveness (PC400, carbachol); type: in vivo; details: aerosol; for PC400, concentration of carbachol that causes a 400% increase in SRL / onset of hyperresponsiveness: 24 h after antigen challenge
Source text: as §1, §2
Twenty-four hours after antigen challenge in both the control and drug trial, the sheep developed airway hyperresponsiveness. Airway hyperresponsiveness is expressed as PC400, the concentration of carbachol that causes a 400% increase in SRL; therefore, a decrease in PC400 indicates hyperresponsiveness. […] The number of breath units fell to 10±4 for those animals in the control group.

[4] = test system: antigen-challenged sheep; experiment: Allergic sheep model of asthma, oral (intergastric tube): Specific Lung Resistance (SRL); type: in vivo
Source text: as §1
Three doses of Compound 2 (40 mg in 60 mL water) were administered to sheep through an intergastric tube 1 hr before challenge, 4 hours post-challenge, and 24 hours post-challenge.

Compound | Ki [1] [nM] | also measured
NCc1ccc(C(=O)NCCCCNC(=O)c2ccc(C(=O)NCCCCNC(=O)c3ccc(CN)cc3)cc2)cc1 [Example 34, N,N'-Bis[4-(aminomethylbenzamido)butyl]-terephthalyldiamide] | 222 | –
N=C(N)Nc1ccc(CNC(=O)CC(=O)NCc2ccc(CNC(=O)CC(=O)NCc3ccc(NC(=N)N)cc3)cc2)cc1 [Example 36, N,N'-Bis(N-(4-Guanidylbenzylamine)-malonamido)-p-xylylene diamide] | 682 | –
N=C(N)Nc1ccc(CNC(=O)CCCC(=O)NCc2ccc(CNC(=O)CCCC(=O)NCc3ccc(NC(=N)N)cc3)cc2)cc1 [Example 38] | 100 | –
N=C(N)Nc1ccc(CNC2=CCCC(=O)N2C(=O)OCc2ccc(COC(=O)N3C(=O)CCC=C3NCc3ccc(NC(=N)N)cc3)cc2)cc1 [Example 40, Bis((R,S)-2-(4-guanidinobenzylamino)-2,3-dehydro-6-piperidone)-1,4-benzenedimethanol dicarbamate] | 463 | –
NCc1ccc(NC(=O)CNC(=O)OCc2ccc(COC(=O)NCC(=O)Nc3ccc(CN)cc3)cc2)cc1 [Example 42, Bis((4-aminomethylanilido)glycine)-1,4-benzenedimethanol dicarbamate] | 783 | –
N=C(N)NCc1ccc(NC(=O)CNC(=O)OCc2ccc(COC(=O)NCC(=O)Nc3ccc(CNC(=N)N)cc3)cc2)cc1 [Example 43, Bis((4-guanidomethylanilido)glycine)-1,4-benzenedimethanol dicarbamate] | 8100 | –
N=C(N)Nc1ccc(CNC(=O)NCC(=O)NCc2ccc(CNC(=O)CNC(=O)NCc3ccc(NC(=N)N)cc3)cc2)cc1 [Example 48] | 700 | –
NCC1CCC(C(=O)NCCCC(=O)NCc2ccc(CNC(=O)CCCNC(=O)C3CCC(CN)CC3)cc2)CC1 (stereo not shown) [Example 49] | 366 | –
CN(Cc1ccc(CN(C)C(=O)CNC(=O)NC[C@H]2CC[C@H](CN)CC2)cc1)C(=O)CNC(=O)NC[C@H]1CC[C@H](CN)CC1 [Example 51, N,N'-Bis(methyl)-bis(glycine-trans-1,4-cyclohexylbis(methylamine)urea)-p-xylylene diamide] | 130 | –
CN(Cc1ccc(CN(C)C(=O)CNC(=O)NCc2ccc(CN)cc2)cc1)C(=O)CNC(=O)NCc1ccc(CN)cc1 [Example 52, N,N'-Bis(methyl)-bis(glycine-p-xylylenediamine urea)-p-xylylene diamide] | 79 | –
CN(Cc1ccc(CN(C)C(=O)c2ccc(CNC(=O)NC[C@H]3CC[C@H](CN)CC3)cc2)cc1)C(=O)c1ccc(CNC(=O)NC[C@H]2CC[C@H](CN)CC2)cc1 [Example 53] | 1200 | –
CN(Cc1ccc(CN(C)C(=O)CN(C)C(=O)NC[C@H]2CC[C@H](CN)CC2)cc1)C(=O)CN(C)C(=O)NC[C@H]1CC[C@H](CN)CC1 [Example 54, N,N'-Bis(methyl)-bis(sarcosine-trans-1,4-cyclohexylbis(methylamine)urea)-p-xylylene diamide] | 608 | –
Bis((R,S)-2-(2-(4-guanidinobenzylamino)-2,3-dehydro-6-piperidone)-1,4-benzenedimethanol dicarbmate [Example 41] | 611 | –

The next compounds have a lower Ki [1] than those just listed; values first:

Ki [1] [nM] | Compound | also measured
62 | NCc1ccc(CNC(=O)NCC(=O)NCc2ccc(CNC(=O)CNC(=O)NCc3ccc(CN)cc3)cc2)cc1 [Example 47, Bis(N-(4-aminomethylbenzyl)glycylurea)-p-xylylene diamide] | –
55 | NCc1cccc(CNC(=O)CNC(=O)OCc2ccc(COC(=O)NCC(=O)NCc3cccc(CN)c3)cc2)c1 [Example 44, Bis((3-aminomethylbenzylamido)glycine)-1,4-benzenedimethanol dicarbamate] | –
48 | NC[C@H]1CC[C@H](C(=O)NCCCCNC(=O)OCc2ccc(COC(=O)NCCCCNC(=O)[C@H]3CC[C@H](CN)CC3)cc2)CC1 [Example 33, N,N'-Bis(trans-4-aminomethyl-cyclohexyl-1-amidobutyl)-1,4-benzene dimethanol dicarbamate] | –
43 | NCc1ccc(CNC(=O)NCC(=O)NCCc2ccc(NC(=O)CNC(=O)NCc3ccc(CN)cc3)cc2)cc1 [Example 50, Bis(N-(4-aminomethylbenzyl)glycylurea)-1,4-phenethylenediamide] | –
40 | N=C(N)Nc1ccc(CNC(=O)CCC(=O)NCc2ccc(CNC(=O)CCC(=O)NCc3ccc(NC(=N)N)cc3)cc2)cc1 [Example 37] | –
20 | N=C(N)Nc1ccc(CNC(=O)CNC(=O)OCc2ccc(COC(=O)NCC(=O)NCc3ccc(NC(=N)N)cc3)cc2)cc1 [Example 2, N,N'-(4-Guanidylbenzylaminecarbonylmethylene)-1,4-benzenedimethanol dicarbamate] | early response to antigen challenge (SRL) [2]: statistically significant reduction in the early response; late response to antigen challenge (SRL) [2]: attenuated the late response; PC400, concentration of carbachol that causes a 400% increase in SRL [3]: 24±6 breath units; onset of hyperresponsiveness [3]: block the onset of hyperresponsiveness; improvement in airway function in antigen challenged sheep [3]: statistically significant improvement in airway function; early phase SRL ([4]; 40 mg in 60 mL water by intergastric tube 1 h before, 4 h and 24 h post-challenge, untreated about 350): about 270; late phase SRL ([4]; 40 mg in 60 mL water by intergastric tube 1 h before, 4 h and 24 h post-challenge, untreated over 150): about 70; anti-asthmatic properties when delivered orally ([4]; 40 mg in 60 mL water, intergastric tube, three doses): significant anti-asthmatic properties
19 | NCc1ccc(CNC(=O)CCC(=O)NCc2ccc(CNC(=O)CCC(=O)NCc3cccc(CN)c3)cc2)cc1 [Example 35, N-(3-Aminomethylbenzylsuccinamido)-N'-(4-aminomethyl-benzylsuccinamido)-p-xylylene diamide] | –
10 | NC[C@H]1CC[C@H](CNC(=O)CNC(=O)OCc2ccc(COC(=O)NCC(=O)NC[C@H]3CC[C@H](CN)CC3)cc2)CC1 [Example 45, Bis(trans-1,4-cyclohexyldimethylamine-glycine)-1,4-benzenedimethanol dicarbamate] | –
10 | N=C(N)Nc1ccc(CNC(=O)CNC(=O)NCc2ccc(CNC(=O)NCC(=O)NCc3ccc(NC(=N)N)cc3)cc2)cc1 [Example 46, 4-(Guanidinobenzylamido)glycine-1,4-xylylene diurea] | –
6 | NCc1ccc(CNC(=O)CCC(=O)Nc2ccc(NC(=O)CCC(=O)NCc3ccc(CN)cc3)cc2)cc1 [Example 39, N,N'-Bis((N-(4-aminomethylbenzyl)succinamido))-p-phenethylenediamide] | –
3.45 | NCc1ccc(CNC(=O)CCC(=O)NCc2ccc(CNC(=O)CCC(=O)NCc3ccc(CN)cc3)cc2)cc1 [Example 8, N,N'-bis(N-(4-aminomethylbenzyl)-succinamido)-p-xylylenediamide] | early response to antigen challenge (SRL) [2]: statistically significant early and late increases in SRL; late response to antigen challenge (SRL) [2]: statistically significant early and late increases in SRL; PC400, concentration of carbachol that causes a 400% increase in SRL [3]: 15±10 breath units; onset of hyperresponsiveness [3]: block the onset of hyperresponsiveness; improvement in airway function in antigen challenged sheep [3]: statistically significant improvement in airway function
